Results from patent US6713490B2, “3,4-dihydroquinolin-2(1H)-one compounds as NR2B receptor antagonists” (Pfizer, Inc., priority 2002, dated 2004).
Counter-ions that a name gives are not always drawn.

Key:
NR2B subunit = molecular target: T1, NR2B subunit (Rattus norvegicus, UniProt P35439+Q00960); test: NR2B binding assay ([3H]-CP-98,113 competition, rat forebrain P2 membrane); settings: 5 nM [3H]-CP-98,113, rat forebrain P2 membrane
T1 construct: Membranes were prepared by homogenization of forebrain of male CD rats; from tissue; host or cells: rat forebrain P2 membrane
Protocol: The activity of the 3,4-dihydroquinolin-2(1H)-one compounds of the present invention, as NR2B antagonists, is determined by their ability to inhibit the binding of NR2B subunit at its receptor sites employing radioactive ligands.
The NR2B antagonist activity of the 3,4-dihydroquinolin-2(1H)-one compounds is evaluated by using the standard assay procedure described in, for example, J. Pharmacol., 331, pp117-126, 1997. […] More specifically, the assay is carried out as follows.
Membranes were prepared by homogenization of forebrain of male CD rats weighing between 170˜190 g by using glass-Teflon homogenizer in 0.32 M sucrose at 4° C. […]
For the saturation assay, receptor saturation was determined by incubating [^3H]-CP-98,113 and 50 μg protein of P2 membrane for 60 minutes at room temperature in a final 100 μl of incubation buffer (50 mM Tris HCl, pH7.4). Total and non-specific bindings (in the presence of 10 μM of unlabeled CP-98,113) were determined in a range of [^3H]-CP-98113 concentrations (0.625 nM to 60 nM). […]
For the competition assay, test compounds were incubated in duplicate with 5 nM [^3H]-CP-98,113 and 50 μg protein of P2 membrane for 60 minutes at room temperature in a final 100 μl of 50 mM Tris HCl buffer (pH7.4). Nonspecific binding was determined by 10 μM of unlabeled CP-98,113 (25 μl). […]

HERG potassium channel = molecular target: T2, HERG potassium channel (Homo sapiens, UniProt Q12809); test: Dofetilide binding assay ([3H]-dofetilide competition, membranes of HEK-293 cells expressing the HERG product)
T2 construct: expressed in transfected cells; host or cells: HEK-293

NR2B = NR2B (Homo sapiens, UniProt Q05586+Q13224); test: Functional activity (method not described); format: cell-based
NR2B, sequence (Q13224 27-1484, species assumed, other chains not shown): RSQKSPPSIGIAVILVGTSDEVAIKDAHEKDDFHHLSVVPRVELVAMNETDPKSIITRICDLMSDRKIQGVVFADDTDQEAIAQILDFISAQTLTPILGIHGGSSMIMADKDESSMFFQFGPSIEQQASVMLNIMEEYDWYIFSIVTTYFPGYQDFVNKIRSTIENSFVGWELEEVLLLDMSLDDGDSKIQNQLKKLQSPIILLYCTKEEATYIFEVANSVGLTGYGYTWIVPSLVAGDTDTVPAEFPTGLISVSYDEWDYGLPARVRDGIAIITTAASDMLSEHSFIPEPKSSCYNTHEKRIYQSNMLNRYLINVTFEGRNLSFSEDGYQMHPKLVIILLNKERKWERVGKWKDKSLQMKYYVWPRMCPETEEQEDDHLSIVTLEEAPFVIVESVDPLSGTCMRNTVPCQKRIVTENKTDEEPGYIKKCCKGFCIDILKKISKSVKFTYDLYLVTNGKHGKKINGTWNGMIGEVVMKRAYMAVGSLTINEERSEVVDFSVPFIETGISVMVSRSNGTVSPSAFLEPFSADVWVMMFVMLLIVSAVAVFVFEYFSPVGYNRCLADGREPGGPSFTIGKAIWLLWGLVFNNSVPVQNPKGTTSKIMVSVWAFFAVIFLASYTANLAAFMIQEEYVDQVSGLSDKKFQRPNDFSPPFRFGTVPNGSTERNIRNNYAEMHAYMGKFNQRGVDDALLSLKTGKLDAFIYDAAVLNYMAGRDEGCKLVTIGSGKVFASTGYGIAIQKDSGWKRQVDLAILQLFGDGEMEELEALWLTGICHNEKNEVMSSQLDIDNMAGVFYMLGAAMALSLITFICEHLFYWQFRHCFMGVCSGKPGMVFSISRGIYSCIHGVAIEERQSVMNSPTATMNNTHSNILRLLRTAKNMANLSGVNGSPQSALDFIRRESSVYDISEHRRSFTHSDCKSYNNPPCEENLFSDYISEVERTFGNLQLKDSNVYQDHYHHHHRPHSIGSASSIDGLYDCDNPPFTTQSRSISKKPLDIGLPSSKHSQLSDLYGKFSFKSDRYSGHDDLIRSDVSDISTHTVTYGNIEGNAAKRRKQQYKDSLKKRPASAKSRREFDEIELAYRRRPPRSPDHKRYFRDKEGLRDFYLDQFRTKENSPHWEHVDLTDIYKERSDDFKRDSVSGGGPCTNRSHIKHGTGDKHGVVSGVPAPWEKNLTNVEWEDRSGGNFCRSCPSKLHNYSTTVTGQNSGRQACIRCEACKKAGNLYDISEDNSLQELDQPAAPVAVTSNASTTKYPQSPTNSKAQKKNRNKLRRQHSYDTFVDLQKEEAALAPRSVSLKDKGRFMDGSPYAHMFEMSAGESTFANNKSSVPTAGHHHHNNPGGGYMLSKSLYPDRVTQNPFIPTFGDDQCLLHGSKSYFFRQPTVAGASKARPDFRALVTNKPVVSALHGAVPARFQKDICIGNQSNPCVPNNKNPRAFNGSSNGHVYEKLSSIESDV

T1 sequence (Q00960 27-1482, other chains not shown): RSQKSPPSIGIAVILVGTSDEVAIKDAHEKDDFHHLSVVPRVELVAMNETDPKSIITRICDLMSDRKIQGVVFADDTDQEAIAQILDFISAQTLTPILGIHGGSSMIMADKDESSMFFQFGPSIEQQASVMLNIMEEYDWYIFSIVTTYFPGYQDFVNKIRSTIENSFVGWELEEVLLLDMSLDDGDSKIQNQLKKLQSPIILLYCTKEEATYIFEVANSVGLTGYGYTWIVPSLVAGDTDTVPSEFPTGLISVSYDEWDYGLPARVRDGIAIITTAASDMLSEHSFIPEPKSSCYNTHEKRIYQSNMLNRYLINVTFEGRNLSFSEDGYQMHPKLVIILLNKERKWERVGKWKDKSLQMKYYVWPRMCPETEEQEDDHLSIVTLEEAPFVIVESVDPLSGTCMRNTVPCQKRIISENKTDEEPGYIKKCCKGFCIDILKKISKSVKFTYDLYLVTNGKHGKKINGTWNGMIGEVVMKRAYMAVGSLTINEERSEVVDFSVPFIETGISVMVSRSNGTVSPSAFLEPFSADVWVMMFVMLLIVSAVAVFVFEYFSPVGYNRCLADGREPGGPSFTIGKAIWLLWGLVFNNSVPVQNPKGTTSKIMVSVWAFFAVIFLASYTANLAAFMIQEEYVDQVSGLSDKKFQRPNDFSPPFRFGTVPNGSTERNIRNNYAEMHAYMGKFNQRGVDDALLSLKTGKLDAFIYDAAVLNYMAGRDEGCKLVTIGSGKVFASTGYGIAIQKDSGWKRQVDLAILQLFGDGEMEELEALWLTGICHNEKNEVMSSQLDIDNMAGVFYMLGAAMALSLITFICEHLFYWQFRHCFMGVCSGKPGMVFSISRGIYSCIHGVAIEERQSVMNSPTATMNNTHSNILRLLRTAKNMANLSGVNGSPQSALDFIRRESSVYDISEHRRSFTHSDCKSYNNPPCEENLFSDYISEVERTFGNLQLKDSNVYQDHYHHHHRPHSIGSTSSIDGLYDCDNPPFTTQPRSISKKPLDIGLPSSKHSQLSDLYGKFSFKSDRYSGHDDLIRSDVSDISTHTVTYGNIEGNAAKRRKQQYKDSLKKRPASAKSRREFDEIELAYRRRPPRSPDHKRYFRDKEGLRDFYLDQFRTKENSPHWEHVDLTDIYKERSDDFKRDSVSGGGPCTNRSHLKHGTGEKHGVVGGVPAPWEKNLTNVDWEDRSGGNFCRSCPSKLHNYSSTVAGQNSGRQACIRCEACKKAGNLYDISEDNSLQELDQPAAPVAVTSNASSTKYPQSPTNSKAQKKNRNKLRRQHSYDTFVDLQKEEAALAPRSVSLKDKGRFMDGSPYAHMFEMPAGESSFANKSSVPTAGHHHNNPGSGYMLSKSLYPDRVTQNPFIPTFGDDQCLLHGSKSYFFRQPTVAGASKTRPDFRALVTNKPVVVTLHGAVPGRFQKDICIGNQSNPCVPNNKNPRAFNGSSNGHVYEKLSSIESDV
T2 sequence (Q12809 whole entry): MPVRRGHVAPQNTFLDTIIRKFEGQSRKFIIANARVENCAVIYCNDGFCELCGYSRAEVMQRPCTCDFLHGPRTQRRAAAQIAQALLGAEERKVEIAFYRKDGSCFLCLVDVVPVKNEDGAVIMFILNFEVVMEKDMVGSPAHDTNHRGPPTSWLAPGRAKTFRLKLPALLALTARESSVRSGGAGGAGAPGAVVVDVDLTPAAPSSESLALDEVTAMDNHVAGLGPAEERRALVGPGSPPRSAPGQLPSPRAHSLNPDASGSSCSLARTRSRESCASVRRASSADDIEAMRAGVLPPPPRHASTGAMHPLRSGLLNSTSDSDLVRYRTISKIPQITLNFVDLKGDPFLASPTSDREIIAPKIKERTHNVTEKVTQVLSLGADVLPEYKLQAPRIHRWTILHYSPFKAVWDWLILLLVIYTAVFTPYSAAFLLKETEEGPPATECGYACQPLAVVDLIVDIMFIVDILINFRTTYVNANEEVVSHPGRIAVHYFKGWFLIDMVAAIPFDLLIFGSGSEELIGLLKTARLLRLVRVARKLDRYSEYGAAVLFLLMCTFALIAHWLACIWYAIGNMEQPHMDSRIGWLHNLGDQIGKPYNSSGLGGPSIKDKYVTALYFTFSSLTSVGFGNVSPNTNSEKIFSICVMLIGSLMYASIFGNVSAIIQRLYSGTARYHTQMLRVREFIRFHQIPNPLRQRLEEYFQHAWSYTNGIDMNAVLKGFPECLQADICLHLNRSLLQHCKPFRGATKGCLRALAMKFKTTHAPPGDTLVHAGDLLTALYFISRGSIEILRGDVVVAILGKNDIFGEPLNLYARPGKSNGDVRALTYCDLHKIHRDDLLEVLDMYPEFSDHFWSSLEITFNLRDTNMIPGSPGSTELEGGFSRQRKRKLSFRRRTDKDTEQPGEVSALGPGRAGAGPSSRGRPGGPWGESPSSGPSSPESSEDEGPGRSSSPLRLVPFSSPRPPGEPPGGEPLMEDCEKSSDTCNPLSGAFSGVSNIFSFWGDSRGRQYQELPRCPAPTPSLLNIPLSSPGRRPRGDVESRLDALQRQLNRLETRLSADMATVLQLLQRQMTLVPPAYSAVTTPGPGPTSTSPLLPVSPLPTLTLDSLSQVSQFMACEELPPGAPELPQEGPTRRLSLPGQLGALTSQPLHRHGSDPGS

## Cc1cccc(C2(O)CCN(CC(O)c3ccc4c(c3)CCC(=O)N4)CC2)c1 (stereo not drawn) (as salt: mesylate) [Example 4, 6-[1-Hydroxy-2-[4-hydroxy-4-(3-methylphenyl)piperidin-1-yl]ethyl]-3,4-dihydroquinolin-2(1H)-one mesylate]
other
  melting point: 98 to 100 °C (dec.)

## O=C1CCc2cc([C@@H](O)CN3CCC(O)(c4cccc(F)c4)CC3)ccc2N1
NR2B subunit
  Ki: 3.5 nM
HERG potassium channel; 5 nM [3H]-dofetilide, HERG homogenate of HEK-293 cells
  Ki: 8300 nM
HERG potassium channel; TI = Dofetilide Binding Ki [μM]/NR2B Binding Ki [nM] x 1000
  TI (Defetilide/NR2B): 2400
NR2B
  IC50: 11.9 nM

## C[C@H]([C@H](O)c1ccc2c(c1)CCC(=O)N2)N1CCC(O)(c2ccc(F)cc2)CC1 [reference compound]
NR2B subunit
  Ki: 7 nM

## C[C@H]([C@H](O)c1ccc2c(c1)CCC(=O)N2)N1CCC(O)(c2ccccc2)CC1
NR2B
  IC50: 22.4 nM

## COc1cccc(C2(O)CCN(CC(O)c3ccc4c(c3)CCC(=O)N4)CC2)c1 (stereo not drawn) (as salt: hydrochloride) [Example 2, 6-{1-Hydroxy-2-[4-hydroxy-4-(3-methoxyphenyl)-1-piperidinyl]ethyl}-3,4-dihydroquinolin-2(1H)-one Hydrochloride]
other
  melting point: 246.9 °C

## CS(=O)(=O)O.O=C1CCc2cc([C@@H](O)CN3CCC(O)(c4cccc(F)c4)CC3)ccc2N1
other
  melting point: 180 to 182 °C
